The source of these data is patent US9938262B2, “Benzamides” (Merck Patent GmbH, priority 2011, dated 2018).

pEC50: −log10 of the molar value.

The target in one experiment is T1, FSHR (Homo sapiens, UniProt P23945).
T1 construct: expressed in transfected cells; host or cells: CHO (Cho-FSHR-LUC-1-1-43)
T1 sequence (P23945 18-695): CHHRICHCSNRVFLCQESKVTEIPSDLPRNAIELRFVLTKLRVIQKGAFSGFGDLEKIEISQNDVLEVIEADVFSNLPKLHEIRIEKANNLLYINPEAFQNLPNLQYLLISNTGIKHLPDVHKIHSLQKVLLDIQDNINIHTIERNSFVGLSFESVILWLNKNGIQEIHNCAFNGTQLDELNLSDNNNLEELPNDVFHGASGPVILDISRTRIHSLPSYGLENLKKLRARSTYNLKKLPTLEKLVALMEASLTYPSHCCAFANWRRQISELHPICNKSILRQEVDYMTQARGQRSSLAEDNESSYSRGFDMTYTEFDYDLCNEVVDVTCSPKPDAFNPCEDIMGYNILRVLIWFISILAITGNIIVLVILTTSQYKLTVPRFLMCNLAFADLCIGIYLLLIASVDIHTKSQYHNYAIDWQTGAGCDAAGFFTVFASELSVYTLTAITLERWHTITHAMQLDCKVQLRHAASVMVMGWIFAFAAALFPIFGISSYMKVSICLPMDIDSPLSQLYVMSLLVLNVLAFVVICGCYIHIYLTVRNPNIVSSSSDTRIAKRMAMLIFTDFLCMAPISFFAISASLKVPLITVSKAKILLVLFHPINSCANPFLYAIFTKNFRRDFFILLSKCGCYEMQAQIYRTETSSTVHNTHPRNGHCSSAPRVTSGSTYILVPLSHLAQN
T1 sequence (P01215 25-116 partner): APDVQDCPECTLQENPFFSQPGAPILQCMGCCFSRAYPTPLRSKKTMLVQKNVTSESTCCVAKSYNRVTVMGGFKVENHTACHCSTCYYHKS
T1 sequence (P01225 19-129 partner): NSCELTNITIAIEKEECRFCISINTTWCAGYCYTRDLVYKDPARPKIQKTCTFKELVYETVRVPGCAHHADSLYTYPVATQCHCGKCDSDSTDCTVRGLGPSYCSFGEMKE
The experiment is described as follows: EC50 of cyclic AMP production in CHO FSHR cells + EC20 FSH (Assay A). Conditions: 1 h; 5 μM; effect relative to maximum response of the FSH standard; Table 1. Format: cell-based. A digest of the protocol:
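cAMP HTRF ratio (665/620 nm) read after 1 h, 37 °C exposure of CHO-FSHR cells to compound in presence of EC20 FSH ([…]) and IBMX 200 μM. Responses given relative to FSH standard maximum; EC50 derived.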
Consider `Cc1ccccc1N1CCN(c2ccc(C(=O)NCCCN3CCCC3=O)cc2NC(=O)c2cnoc2C)CC1` [Compound 107], for which the activation at 5 µM worked out at 15%.

Regarding `Cc1ccccc1N1CCN(c2ccc(C(=O)NCCCN3CCCC3=O)cc2NC(=O)c2cc(C)c(C)o2)CC1` [Compound 138], the activation at 5 µM was 41%.

Turning to `COc1ccc(C(=O)Nc2cc(C(=O)NCCCN3CCCC3=O)ccc2N2CCN(c3ccccc3C)CC2)cc1OC` [Compound 127], the activation at 5 µM was determined as 33%.

For the compound `Cc1ccccc1N1CCN(c2ccc(C(=O)NCCN(C)C(=O)OC(C)(C)C)cc2NC(=O)c2ccco2)CC1` [Compound 64, {2-[3-[(Furan-2-carbonyl)-amino]-4-(4-o-tolyl-piperazin-1-yl)-benzoylamino]-ethyl}-methyl-carbamic acid tert-butyl ester], the activation at 5 µM came to 72%.

Turning to `Cc1ccc(C(=O)Nc2cc(C(=O)NCc3cccc(Br)c3)ccc2N2CCN(c3ccccc3C)CC2)o1` [Compound 170], the activation at 5 µM was determined as 32%.

As to `Cc1ccccc1N1CCN(c2ccc(C(=O)NCCCN3CCCC3=O)cc2NC(=O)c2cnoc2C(C)C)CC1` [Compound 145], the activation at 5 µM stood at 16%.

Take `Cc1ccccc1N1CCN(c2ccc(C(=O)NCCCN3CCCC3=O)cc2NC(=O)C2CCN(C)CC2)CC1` [Compound 83]: the activation at 5 µM was determined as 8%.

As to `Cc1ccccc1N1CCN(c2ccc(C(=O)NCCCN3CCCC3=O)cc2NC(=O)c2cnoc2C2CC2)CC1` [Compound 109], the activation at 5 µM worked out at 10%.

In the case of `Cc1ccc(N2CCN(c3ccc(C(=O)NCCCN4CCCC4=O)cc3NC(=O)c3coc(C4CC4)n3)CC2)cc1` [Compound 245], the activation at 5 µM is 12%.

Regarding `Cc1ccccc1N1CCN(c2ccc(C(=O)NCCCN3CCCC3=O)cc2NS(=O)(=O)c2cccc3ncccc23)CC1` [Compound 229], the activation at 5 µM came out at 41%.

Turning to `Cc1ccc(C(=O)Nc2cc(C(=O)NCCCN3CCCC3=O)ccc2N2CCN(Cc3ccccc3Cl)[C@@H](C)C2)o1` [Compound 255], the activation at 5 µM came to 22%.

Still in this experiment, the particulars now being: 1 h; 5 μM; effect relative to maximum response of the FSH standard; Table 2.
As for `O=C(NCCCN1CCCC1=O)c1ccc(N2CCN(c3ncncn3)CC2)c(NC(=O)c2coc(C3CC3)n2)c1` [Compound 554], the activation at 5 µM is 40%.

The same experiment, now with this note: CHO FSHR cells + EC20 FSH; Table 1; read-out: Assay A EC50 of cyclic AMP production.
The pEC50 is −log10 of the EC50, conventionally taken in molar units. Regarding `Cc1ccccc1N1CCN(c2ccc(C(=O)NCCCN3CCCC3=O)cc2NC(=O)c2sc(Br)nc2C)CC1` [Compound 72], the pEC50 is less than 5.00.

For the compound `CNCCNC(=O)c1ccc(N2CCN(c3ccccc3C)CC2)c(NC(=O)c2ccco2)c1` [Compound 132, Furan-2-carboxylic acid [5-(2-methylamino-ethylcarbamoyl)-2-(4-o-tolyl-piperazin-1-yl)-phenyl]-amide], the pEC50 is 5.00 to 6.00.

For `Cc1ccccc1N1CCN(c2ccc(C(=O)NCCCN3CCCC3=O)cc2NC(=O)c2nc3ccccc3s2)CC1` [Compound 202], the pEC50 is 5.00 to 6.00.

As to `Cc1ccc(C(=O)Nc2cc(C(=O)NCCCN3CCCC3=O)ccc2N2CCN(c3ccccc3C)CC2)s1` [Compound 162], the pEC50 is 6.00 to 7.00.

For the compound `Cc1ccccc1N1CCN(c2ccc(C(=O)NCCCN3CCCC3=O)cc2NC(=O)c2ncsc2C)CC1` [Compound 179], the pEC50 is 6.00 to 7.00.

On to `Cc1ccccc1N1CCN(c2ccc(C(=O)NCCCN3CCCC3=O)cc2NC(=O)c2sccc2Br)CC1` [Compound 4], for which the pEC50 is 5.00 to 6.00.

Turning to `Cc1ccc(C(=O)Nc2cc(C(=O)NCCCn3ccnc3)ccc2N2CCN(c3ccccc3C)CC2)o1` [Compound 210, 5-Methyl-furan-2-carboxylic acid [5-(3-imidazol-1-yl-propylcarbamoyl)-2-(4-o-tolyl-piperazin-1-yl)-phenyl]-amide], the pEC50 is 5.00 to 6.00.

As to `COc1ccc(C(=O)Nc2cc(C(=O)NCCCN3CCCC3=O)ccc2N2CCN(c3ccccc3C)CC2)o1` [Compound 141], the pEC50 was 6.00 to 7.00.

Take `Cc1ccccc1N1CCN(c2ccc(C(=O)NCCCN3CCCC3=O)cc2NC(=O)c2cnc(Br)s2)CC1` [Compound 25]: the pEC50 is 5.00 to 6.00.

Turning to `Cc1ncc(C(=O)Nc2cc(C(=O)NCCCN3CCCC3=O)ccc2N2CCN(c3ccccc3C)CC2)s1` [Compound 198], the pEC50 is 6.00 to 7.00.

Take `Cc1ccc(C(=O)Nc2cc(C(=O)NCCCN3CCCC3=O)ccc2N2CCC(c3ccccc3C)CC2)o1` [Compound 165, 5-Methyl-furan-2-carboxylic acid [5-[3-(2-oxo-pyrrolidin-1-yl)-propylcarbamoyl]-2-(4-o-tolyl-piperidin-1-yl)-phenyl]-amide]: the pEC50 was less than 5.00.

Consider `Cc1ccc(C(=O)Nc2cc(C(=O)NC3CCN(C(=O)OC(C)(C)C)CC3)ccc2N2CCN(c3ccccc3C)CC2)o1` [Compound 175, 4-[3-[(5-methyl-furan-2-carbonyl)-amino]-4-(4-o-tolyl-piperazin-1-yl)-benzoylamino]-piperidine-1-carboxylic acid tert-butyl ester], for which the pEC50 was 5.00 to 6.00.

Staying with this experiment, now noted: CHO FSHR cells + EC20 FSH; Table 2; read-out: Assay A EC50 of cyclic AMP production.
`Cc1ccccc1N1CCN(c2ccc(C(=O)NCC(O)CN3CCCC3)cc2NC(=O)c2ccco2)CC1` (stereo not shown) [Compound 501]: the pEC50 was 6.00 to 7.00.

As to `Cc1ccccc1N1CCN(c2ccc(C(=O)NCCCN3CCN(C)C3=O)cc2NC(=O)c2coc(C3CC3)n2)CC1` [Compound 331], the pEC50 was more than 7.00.

For `Cc1ccccc1N1CCN(c2ccc(C(=O)NCCCN3CCC[C@H]3C(N)=O)cc2NC(=O)c2ccco2)CC1` [Compound 609], the pEC50 was 6.00 to 7.00.

Turning to `Cc1ccccc1N1CCN(c2ccc(C(=O)NC[C@@H](O)c3ccccc3)cc2NC(=O)c2ccco2)CC1` [Compound 582], the pEC50 is 6.00 to 7.00.

Take `Cc1ccccc1N1CCN(c2ccc(C(=O)NC(C)CCN3CCCC3=O)cc2NC(=O)c2coc(C3CC3)n2)CC1` (stereo not shown) [Compound 364]: the pEC50 was 6.00 to 7.00.

Turning to `CCOc1cc(CCCNC(=O)c2ccc(N3CCN(c4ccccc4C)CC3)c(NC(=O)c3ccc(C)o3)c2)ccc1OC` [Compound 581], the negative logarithm of the EC50 (pEC50) was 6.00 to 7.00.

With `COC(=O)NCCCNC(=O)c1ccc(N2CCN(c3ccccc3C)CC2)c(NC(=O)c2ccc(C)o2)c1` [Compound 271], the pEC50 is 6.00 to 7.00.

As to `Cc1ccccc1N1CCN(c2ccc(C(=O)NCCCNC(=O)C3CCC3)cc2NC(=O)c2coc(C3CC3)n2)CC1` [Compound 448], the pEC50 was 6.00 to 7.00.

For `Cc1ccccc1N1CCN(c2ccc(C(=O)NC3CCN(S(C)(=O)=O)CC3)cc2NC(=O)c2coc(C3CC3)n2)CC1` [Compound 297], the pEC50 was 6.00 to 7.00.

For the compound `NC(=O)c1cccnc1N1CCN(c2ccc(C(=O)NCCCN3CCCC3=O)cc2NC(=O)c2coc(C3CC3)n2)CC1` [Compound 532], the pEC50 is less than 5.00.

`Cc1ccccc1N1CCN(c2ccc(C(=O)NCCN(C)C3CCS(=O)(=O)C3)cc2NC(=O)c2ccco2)CC1` (stereo not shown) [Compound 504]: the pEC50 was 6.00 to 7.00.

Consider `Cc1ccccc1N1CCN(c2ccc(C(=O)NCCCN3CCCC3=O)cc2NCc2ccco2)CC1` [Compound 572], for which the pEC50 is more than 7.00.

As to `CCNC(=O)N(C)CCCNC(=O)c1ccc(N2CCN(c3ccccc3C)CC2)c(NC(=O)c2coc(C3CC3)n2)c1` [Compound 367], the pEC50 is 6.00 to 7.00.

As to `Cc1ccccc1N1CCN(c2ccc(C(=O)NCCN3CCCC3=O)cc2NC(=O)c2coc(C3CC3)n2)CC1` [Compound 288], the pEC50 is 6.00 to 7.00.

As to `Cc1cccnc1N1CCN(c2ccc(C(=O)NCCc3c[nH]cn3)cc2NC(=O)c2coc(C3CC3)n2)CC1` [Compound 444], the pEC50 is 6.00 to 7.00.

In the case of `Cc1ccccc1N1CCN(c2ccc(C(=O)NCCCN3CCCC3=O)cc2NC(=O)c2cnc(C3CC3)o2)CC1` [Compound 386], the pEC50 was 6.00 to 7.00.

With `CCN(C)Cc1cccc(CNC(=O)c2ccc(N3CCN(c4ccccc4C)CC3)c(NC(=O)c3coc(C4CC4)n3)c2)c1` [Compound 537], the pEC50 was 6.00 to 7.00.

In the case of `Cc1ccccc1N1CCN(c2ccc(C(=O)NCCCc3ccccc3O)cc2NC(=O)c2ccco2)CC1` [Compound 372], the pEC50 was 6.00 to 7.00.

`Cc1cnc(CCCNC(=O)c2ccc(N3CCN(c4ccccc4C)CC3)c(NC(=O)c3coc(C4CC4)n3)c2)s1` [Compound 430]: the pEC50 was 6.00 to 7.00.

For `Cc1ccccc1N1CCN(c2ccc(C(=O)NCc3cccc(S(N)(=O)=O)c3)cc2NC(=O)c2ccco2)CC1` [Compound 266], the pEC50 is more than 7.00.

In the case of `Cc1ccccc1N1CCN(c2ccc(C(=O)NCCCN3CCCC3=O)cc2NC(=O)c2nccn2C)CC1` [Compound 415], the pEC50 was less than 5.00.

With `Cc1ccccc1N1CCN(c2ccc(C(=O)NCCCN3CCCCC3=O)cc2NC(=O)c2ccco2)CC1` [Compound 470], the pEC50 was 6.00 to 7.00.

`Cc1ccccc1N1CCN(c2ccc(C(=O)N[C@@H]3CCCC[C@@H](O)[C@H]3O)cc2NC(=O)c2coc(C3CC3)n2)CC1` [Compound 479]: the pEC50 is 6.00 to 7.00.

In the case of `Cc1cncnc1N1CCN(c2ccc(C(=O)NCCCN3CCCC3=O)cc2NC(=O)c2ccco2)CC1` [Compound 420], the pEC50 is less than 5.00.

`C=CCNC(=O)NCCCNC(=O)c1ccc(N2CCN(c3ccccc3C)CC2)c(NC(=O)c2ccco2)c1` [Compound 512]: the pEC50 is more than 7.00.

On to `Cc1ccccc1N1CCN(c2ccc(C(=O)NCCCN3CCCC3=O)cc2NCc2cccc3cccnc23)CC1` [Compound 429], for which the pEC50 was 6.00 to 7.00.

Regarding `C=CCNC(=O)NCCCNC(=O)c1ccc(N2CCN(c3ccccc3C)CC2)c(NC(=O)c2coc(C3CC3)n2)c1` [Compound 426], the pEC50 was 6.00 to 7.00.

As for `O=C(NCCCN1CCCC1=O)c1ccc(N2CCN(c3nccs3)CC2)c(NC(=O)c2coc(C3CC3)n2)c1` [Compound 505], the pEC50 was 5.00 to 6.00.

Take `Cc1ccccc1N1CCN(c2ccc(C(=O)NCC(=O)NC3CCS(=O)(=O)C3)cc2NC(=O)c2ccco2)CC1` (stereo not shown) [Compound 376]: the pEC50 was 6.00 to 7.00.

`Cc1ccccc1N1CCN(c2ccc(C(=O)NCCN3CCOC3=O)cc2NC(=O)c2coc(C3CC3)n2)CC1` [Compound 350]: the pEC50 is 6.00 to 7.00.

With `Cc1ccccc1N1CCN(c2ccc(C(=O)NC[C@H](O)CO)cc2NC(=O)c2coc(C3CC3)n2)CC1` [Compound 565], the pEC50 is 6.00 to 7.00.
